In brackets after ≈: the same amount, converted by molar mass.

This passage reports Ki and solubility results from ChEMBL document CHEMBL3627636, “Novel bivalent inhibitors with sub-nanomolar affinities towards human glyoxalase I” (Bioorg Med Chem Lett, 2015).

The nature of data set [1]: Inhibition of yeast glyoxalase 1. On the set-up: species or system Saccharomyces cerevisiae.
A short description of data set [2]: Solubility of compound. The format is physicochemical.
For data set [3], the target named is Hydroxyacylglutathione hydrolase, mitochondrial (Bos taurus, UniProt Q3B7M2). Put plainly: Inhibition of bovine liver glyoxalase 2.
The target of data set [4] is T1, Lactoylglutathione lyase (Homo sapiens, UniProt Q04760). Put plainly: Inhibition of 6-His tagged recombinant human glyoxalase 1 transfected in Escherichia coli BL21 (DE3) assessed as S-D-lactoylglutathione formation by spectrophotometer.
T1 sequence (Q04760 whole entry): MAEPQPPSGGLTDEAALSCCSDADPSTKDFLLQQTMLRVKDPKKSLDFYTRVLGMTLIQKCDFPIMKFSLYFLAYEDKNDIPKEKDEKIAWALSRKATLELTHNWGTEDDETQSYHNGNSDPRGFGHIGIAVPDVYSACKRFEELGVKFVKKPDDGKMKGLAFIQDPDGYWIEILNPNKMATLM
The target of data set [5] is T1, Lactoylglutathione lyase. Put plainly: Inhibition of human glyoxalase 1.

Regarding `O=C(O)CNC(=O)C(CSC(=O)N(O)c1ccc(Br)cc1)NC(=O)CCC(NCCC(=O)OCCOCCOCCOCCNC(=O)CCCCCCC(=O)NCCCOCCOCCOCCCNC(=O)CCCCCCC(=O)NCCOCCOCCOCCOC(=O)CCNC(CCC(=O)NC(CSC(=O)N(O)c1ccc(Br)cc1)C(=O)NCC(=O)O)C(=O)O)C(=O)O` (stereo unspecified), the Ki came to 6900 nM in data set [1], 138 nM in data set [3] and 1 nM at Lactoylglutathione lyase [4]. The solubility in data set [2] came out at 26 mg/mL (≈ 12.8 mM).

In the case of `O=C(O)CNC(=O)C(CSC(=O)N(O)c1ccc(Br)cc1)NC(=O)CCC(NCCC(=O)OCCNC(=O)CCNC(=O)CC(=O)NCCNC(=O)CC(=O)NCCC(=O)NCCOC(=O)CCNC(CCC(=O)NC(CSC(=O)N(O)c1ccc(Br)cc1)C(=O)NCC(=O)O)C(=O)O)C(=O)O` (stereo unspecified), the Ki worked out at 3700 nM in data set [1], 81 nM in data set [3] and 0.3 nM on Lactoylglutathione lyase [4]. This compound had a solubility in data set [2] of 32 mg/mL (≈ 19.9 mM).

`NCCC(=O)NC(CCC(=O)NC(CSC(=O)N(O)c1ccc(Cl)cc1)C(=O)NCC(=O)O)C(=O)O` (stereo unspecified) yielded an inhibition constant (Ki) on Lactoylglutathione lyase [5] of 330 nM.

At Lactoylglutathione lyase [5], `CC(=O)CNC(CCC(=O)NC(CSC(=O)N(O)c1ccc(Cl)cc1)C(=O)NCC(=O)O)C(=O)O` (stereo unspecified) returned an inhibition constant Ki of 130 nM.

`CCOC(=O)CCNC(CCC(=O)NC(CSC(=O)N(O)c1ccc(Cl)cc1)C(=O)NCC(=O)O)C(=O)O` (stereo unspecified) gave an inhibition constant (Ki) on Lactoylglutathione lyase [5] of 46 nM.

One may read the Ki as a dissociation constant, usually derived from enzyme kinetics or from competition with a known ligand. By solubility is commonly meant the concentration that dissolves in the medium under given conditions.
